Consider one molecule from publication PMC6934184, “Selective DNA-PKcs inhibition extends the therapeutic index of localized radiotherapy and chemotherapy” (The Journal of Clinical Investigation, 2019).

The structures appear in SMILES notation.

The test concerns the target T1, ACVR1B (ALK4) (Homo sapiens, UniProt P36896).
T1 construct: purchased Thermo Fisher Scientific (Life Technologies) SelectScreen
Nature of the test: SelectScreen Z'LYTE. Format: biochemical. The procedure, abridged:
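Percent values come from Thermo SelectScreen profiling of NU5455, combining activity and binding assays. CSF1R was run in Z'LYTE format at Km app ATP, and CAMK1 in Adapta format with ATP listed at 10.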

T1 sequence (P36896 24-505): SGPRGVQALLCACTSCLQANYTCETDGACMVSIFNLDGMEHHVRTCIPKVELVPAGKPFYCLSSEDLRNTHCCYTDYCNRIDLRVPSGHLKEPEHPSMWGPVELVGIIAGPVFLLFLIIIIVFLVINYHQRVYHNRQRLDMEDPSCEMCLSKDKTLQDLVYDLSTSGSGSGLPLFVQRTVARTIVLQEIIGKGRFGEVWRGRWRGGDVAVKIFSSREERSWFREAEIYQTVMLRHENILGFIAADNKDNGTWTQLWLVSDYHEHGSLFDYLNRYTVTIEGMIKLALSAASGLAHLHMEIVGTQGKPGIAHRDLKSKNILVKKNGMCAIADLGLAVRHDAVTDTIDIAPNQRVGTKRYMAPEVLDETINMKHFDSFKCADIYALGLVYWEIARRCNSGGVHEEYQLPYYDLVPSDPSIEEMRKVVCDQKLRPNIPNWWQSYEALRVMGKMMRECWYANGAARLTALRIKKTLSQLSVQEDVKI

What is called inhibition is the percentage by which the read-out fell short of the control. The molecule `CN(C(=O)CN1CCOCC1)c1ccc2sc3c(-c4cccc5c(=O)cc(N6CC7CCC(C6)O7)oc45)cccc3c2c1` [NU5455] gave an inhibition at 1 µM of 2%.
